Consider one compound from article PMC11194091 (2024).

Assay [1] has as its system G2C4 RNA (RNA, triplex) GGCCCC. Kind of assay: DSC. The note with it: 100 mM NaCl; 10 mM sodium cacodylate pH 6.0; 300 μM ANP77, 300 μM RNA; triplex melting 38.1 to 41.5; derived from two Tm.
In assay [2] the test system is (G2C4)2 (RNA, repeat) GGCCCCGGCCCC
Kind of assay: ITC. The note with it: 100 mM NaCl; 10 mM sodium cacodylate pH 6.0, 25°C; sequential binding sites model; site 1 of 2.

Assay [3] has the same test system. In words: circular dichroism. To be noted: 100 mM NaCl; 10 mM sodium cacodylate pH 7.0, room temperature; 2.5 μM RNA, 25 μM ANP77.
Assay [4] deals with G2C4 RNA (RNA, triplex) GGCCCC. In words: ITC. The note with it: 100 mM NaCl; 10 mM sodium cacodylate pH 6.0, 25°C; one set of sites model.
For assay [5], the system named is RNA oligomer having five G2C4 repeats (RNA, repeat) GGCCCCGGCCCCGGCCCCGGCCCCGGCCCC
Kind of assay: circular dichroism. To be noted: 100 mM NaCl; 10 mM sodium cacodylate pH 7.0, room temperature; 2.5 μM RNA, 25 μM ANP77. A general note: Circular dichroism is the unequal absorption of left and right circularly polarised light.

Assay [6] concerns G2C4 RNA (RNA, triplex) GGCCCC. Kind of assay: X-ray crystal structure. To be noted: 80 mM NaCl; 40 mM sodium cacodylate pH 6.0, 45% MPD, 12 mM spermine, 19°C; 1.1 Å.
Assay [7] relates to G2C4 RNA (RNA, triplex) GGCCCC. Kind of assay: CSI-TOF mass spectrometry. The note with it: 250 mM ammonium acetate; water/methanol 8:2, -10°C spray; 20 μM RNA, 50 μM ANP77; complexes with double-stranded form.

As usually defined, the Kd is the free concentration of one partner at which half of the binding sites on the other are occupied at equilibrium, for simple one-to-one binding. Lower therefore signals higher affinity.

Turning to `NCCCNC(=O)C(Cc1ccc2ccc(N)nc2n1)Cc1ccc2ccc(N)nc2n1`, in assay [1], the “ΔTm1 (shift in Tm1)” value was 3.4 °C. The results for the Kd in assay [2] and in assay [4] were 0.976 ± 0.377 µM and 7.9 ± 1.0 µM, respectively. Besides, the binding entry in assay [3], in assay [5], in assay [6] and in assay [7] was “yes” throughout.
